Measured values as given in ChEMBL document CHEMBL1146726, “Linker-modified quinoline derivatives targeting HIV-1 integrase: synthesis and biological activity” (Bioorg Med Chem Lett, 2004).

Key:
CCRF-CEM = test: Concentration that inhibits 50% of viral particle production in de novo infection assay of CEM cells (ex vivo); Not reached; type: functional, cell-based, Homo sapiens
[1] = tested on: Human immunodeficiency virus 1; test: Inhibition of particle production in de novo infection assay of HIV infected CEM cells.; type: functional, organism-based; conditions: Human immunodeficiency virus 1, CCRF-CEM
[2] = target: Human immunodeficiency virus type 1 integrase (Human immunodeficiency virus 1, UniProt Q7ZJM1); test: In vitro inhibition of recombinant integrase activity in a standard 3'-processing assay.
Sequence of Human immunodeficiency virus type 1 integrase (Q7ZJM1 whole entry): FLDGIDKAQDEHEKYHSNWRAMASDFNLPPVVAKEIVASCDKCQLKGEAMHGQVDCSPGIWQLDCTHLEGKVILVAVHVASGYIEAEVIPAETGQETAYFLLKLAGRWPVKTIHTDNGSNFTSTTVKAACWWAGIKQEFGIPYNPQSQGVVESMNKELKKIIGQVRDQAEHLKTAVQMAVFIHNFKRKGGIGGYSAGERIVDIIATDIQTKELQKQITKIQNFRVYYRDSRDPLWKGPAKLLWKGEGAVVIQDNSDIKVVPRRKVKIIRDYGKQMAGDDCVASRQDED

Compound	IC50 (CCRF-CEM)	IC50 [1] [µM]	IC50 [2] [µM]
O=C(O)c1ccc2ccc(CCc3ccc(O)c(O)c3)nc2c1O	Not reached		
COc1ccc(CNC(=O)Nc2ccc3ccc(C(=O)O)c(O)c3n2)cc1		> 100	> 100
O=C(NNc1ccc([N+](=O)[O-])cc1[N+](=O)[O-])c1ccc2ccc(C(=O)O)c(O)c2n1		> 100	3
O=C(Nc1ccc(O)c(O)c1)c1ccc2ccc(C(=O)O)c(O)c2n1		30	0.9
O=C(O)c1ccc2ccc(/C=C/c3ccc(O)c(O)c3)nc2c1O		1	
O=C(O)c1ccc2ccc(/C=C/c3cc(O)cc(O)c3)nc2c1O		> 100	
O=C(/C=C(\O)c1ccccc1)c1ccc2ccc(C(=O)O)c(O)c2n1		> 100	30
COc1cc(CNC(=O)c2ccc3ccc(C(=O)O)c(O)c3n2)cc(O)c1O		25	6.5
O=C(NCc1ccc(O)c(O)c1)c1ccc2ccc(C(=O)O)c(O)c2n1		2	5
O=C(NCc1ccc(O)c(O)c1)Nc1ccc2ccc(C(=O)O)c(O)c2n1		55	> 100
O=C(NNc1ccccc1)c1ccc2ccc(C(=O)O)c(O)c2n1		45	> 100
O=C(NCc1ccc(O)cc1O)c1ccc2ccc(C(=O)O)c(O)c2n1		10	5
O=C(Nc1ccc(O)c(O)c1)Nc1ccc2ccc(C(=O)O)c(O)c2n1		> 100	> 100
O=C(Nc1ccc2ccc(C(=O)O)c(O)c2n1)c1ccccc1		> 100	> 100
O=C(NCc1cccc(O)c1O)c1ccc2ccc(C(=O)O)c(O)c2n1		40	5
O=C(NCc1ccc(O)c(O)c1O)c1ccc2ccc(C(=O)O)c(O)c2n1		4	1.5
O=C(NCc1cc(O)cc(O)c1)c1ccc2ccc(C(=O)O)c(O)c2n1		> 100	> 100
COc1cc(NC(=O)c2ccc3ccc(C(=O)O)c(O)c3n2)cc(O)c1O		2	6.5
